According to US5972894A, “Peptides having potassium channel opener activity” (Cytran, Inc., priority 1997, dated 1999):

Tests used:
[1] = system: Isolated Rat Heart; assay: Inotropic function of normal isolated rat heart, Langendorff perfusion; settings: dose 0.01 mg
From the text: Rat heart specimens were obtained surgically from white random-bred male rats weighing approximately 250 g. The hearts were established in culture using retrograde heart perfusion according to the Langendorff method performed with a standard oxygenated (95% O2 and 5% CO2) Krebs-Henseleit solution through a glass aorta cannula. The retroperfusion pressure forces the aortic valves shut. In this way, the oxygenated solution passed only through the coronary vasculature of the heart such that both ventricles remain effectively empty. Perfusion conditions: An average constant perfusate flow rate of 15 to 25 ml/min was maintained with a constant perfusate pressure of 80 cm H2 O. Pressure Measurements: A latex balloon catheter connected with a pressure transducer ([…], Sweden) was inserted into the left ventricle of the heart to measure parameters of the inotropic function of the heart. The intraventricle pressure variation curve for the left ventricle was recorded with a polygraph. Experimental Protocol: GE and VT served as the test substances. After a 30-minute adaptation of the heart to the organ culture perfusion conditions, a set of basal (control) measurements was taken, as described in (i) through (v) below. […] See GOODMAN […] THE PHARMACOLOGICAL BASIS OF THERAPEUTICS 160 (Goodman et al., eds., 7th ed. 1985), incorporated herein by reference in its entirety for all purposes. Each dose of each respective test or reference substance was tested on four different rat hearts. The inotropic functions of each of the four rat hearts were evaluated by measuring: (i) the systolic pressure in the left ventricle ([…] diastolic pressure in the left ventricle ([…] evolving pressure (Pev. =[…]); (iv) the maximal rate of increase of left ventricle pressure (+dp/dtmax mm Hg/sec); and (v) the maximal rate of decrease of left ventricle pressure (-dp/dtmax mm Hg/sec). In addition, the heart rate (HR) of each heart was determined from the pressure variation recordings made of the left ventricle pressure.

[2] = system: ischemic myocardium; assay: Inotropic function and arrhythmias of ischemic isolated rat heart during reperfusion; settings: for Diastolic Pressure in Ischemic Left Ventricle (% of Preischemic Mean Value) / Evolving Pressure in Ischemic Left Ventricle (% of Preischemic Mean Value) / Heart Rate during Reperfusion (% of Preischemic Mean Value) / Maximal Rate of Increase of Left Ventricle Pressure (% of Preischemic Mean Value) / Maximal Rate of Left Ventricle Pressure Decrease (% of Preischemic Mean Value) / Systolic Pressure in Ischemic Left Ventricle (% of Preischemic Values): 14.0 mg/l
From the text: Rat hearts were surgically isolated from white random-bred rats weighing approximately 250 g. The isolated hearts were perfused with a standard oxygenated (95% O2 and 5% CO2) Krebs-Henseleit solution in a retrograde manner (i.e., according to Langendorff and using a constant perfusate pressure of 80 cm of water). The hearts maintained a steady spontaneous contraction rate. A latex balloon catheter connected to a pressure transducer (EMT-746, Siemens-Elema, Sweden) was inserted into the left ventricle of each heart to measure the inotropic function of the heart (as described in Example 3, above). The left ventricle pressure variation curve was recorded using a polygraph.
Stage I ("adaptation regimen") consisted of a 30-minute adaptation of the respective rat hearts to the perfusion regimen. The baseline parameters for the inotropic function of each heart were recorded to establish the preischemic values for the following measured parameters: (i) the systolic pressure in the left ventricle (Psyst. mm Hg); (ii) the diastolic pressure in the left ventricle (Pdiast. mm Hg); (iii) the evolving pressure (Pev. =Psyst. -Pdist. mm Hg); (iv) the maximal rate of increase of left ventricle pressure (+dp/dtmax mm Hg/sec); and (v) the maximal rate of decrease of left ventricle pressure (-dp/dtmax mm Hg/sec). In addition, the heart rate (HR) of each heart was determined from the recordings made of the variations in the left ventricle pressure over time. In Stage II ("ischemic simulation"), ischemia was induced in each heart by shutting off the supply of the perfusion solution to the heart. Approximately 30 minutes later, Stage III ("reperfusion regimen") was initiated by restarting the reperfusion and including in the perfusate solution a test or control substance at one of the following respective concentrations: a perfusate solution of a test substance comprised 0.06, 0.6, or 6.0 mg/l GE, or 0.06, 0.6, or 6.0 mg/l VT, respectively; a perfusate solution of the positive control substance comprised 14 mg/l inosine. Inosine is a nucleoside preparation that produces a favorable inotropic effect on both normal and ischemic myocardium while inducing no rhythm disturbances or acceleration of ischemic contracture development. Woollard et al., Cardiovasc. Res. 15: 659-67 (1981). Inosine was obtained from Sigma Chemical Company, USA (Cat. Code I-4125; lot number 81H0227). The negative control substance comprised reperfusion using a standard oxygenated Krebs-Henseleit solution.
For each heart, the inotropic function of the myocardium was evaluated by measuring the parameters (i) through (v), discussed above, and the heart rate. These six parameters were recorded continuously throughout the study (i.e., beginning with Stage I and continuing through Stage III). The recordings were analyzed at the following times: (a) immediately before beginning Stage II (that is, after the 30-minute Stage I adaptation period, but before stopping perfusion); and (b) at 1, 5, 10, 20, and 30 minutes into the Stage III reperfusion.
The frequency and duration of rhythm disturbances in the 30-minute Stage III reperfusion period were determined by measuring the following parameters: (i) the number of ventricular extrasystoles; (ii) the overall duration of ventricular tachycardias (in seconds); and (iii) the overall duration of ventricular fibrillation (in seconds). Each dose of the test substance was tested on nine isolated hearts.

[3] = system: rats; assay: Arterial blood pressure in anesthetized rats; assay type: in vivo; settings: 5 mg/kg i.v.
Protocol: White random-bred male rats weighing approximately 200 g were employed for this study. Each dose of each respective test or control substance was administered to a group of five rats. GE and VT were employed as test substances and were administered intravenously at doses of 0.01, 0.1, 1.0, and 10.0 mg/kg. Physiological saline (0.2 ml) served as the negative control substance. The ganglionic blocking agent, pentamine, served as the positive control substance and was tested at a dose of 5 mg/kg. Following administration of the test substance, positive control substance, or negative control substance, the arterial blood pressure of each animal was monitored.
Prior to administration of the test or control substance, each animal was anesthetized with Chloralose and then both its carotid artery and jugular vein were catheterized. The carotid catheter was connected to an electronic manometer attached to a computer recorder through an analog-to-digital converter. The mean basal level of the arterial blood pressure was determined as follows: For a period of 30 seconds, the digital signal pertaining to the arterial blood pressure was recorded at 1-second intervals. The mean value of these thirty individual measurements was then determined and recorded.
After determining the mean basal level of the arterial blood pressure, a particular dose of the test or control substance was administered in a volume of 0.2 ml of physiological saline to an animal through the jugular venous catheter. Measurements of the arterial blood pressure were then taken during the next 1.5 hours as follows: (i) during the first 5 minutes, the arterial blood pressure was being monitored continuously and mean values were calculated electronically and recorded at each of the ten different 30-second intervals (i.e., 30th second, 60th second, etc.); (ii) thereafter, mean values of the arterial blood pressure were calculated at the first seconds of 10th minute, 15th minute, 30th minute, 45th minute, 60th minute, 75th minute, and 90th minute after administration of the respective test or control substance.

[4] = 14.1 mg/l, 30-minute reperfusion

With CC(C)NCC(O)c1ccc(O)c(O)c1 (stereo not drawn) [Isoproterenol, isoproterenol, reference compound] the “+dp/dtmax % of Basal Level” value [1] was 122%, the “+dp/dtmax Subst. Level” value [1] was 2110 mm Hg/sec and the “-dp/dtmax % of Basal Level” value [1] was 112%. For the same compound, the “-dp/dtmax Subst. Level” value [1] was 1140 mm Hg/sec, the “HR % of Basal Level” value [1] was 133% and the “HR abs, Subst. Level” value [1] was 255 hb/min. The “Pdiast % of Basal Level” value [1] was 120%, the “Pdiast abs, Subst. Level” value [1] was 12 mm Hg and the “Pev % of Basal Level” value [1] was 118%. The “Pev Subst. Level” value [1] was 108 mm Hg and the “Psyst % of Basal Level” value [1] was 117%.
With OC[C@H]1O[C@@H](n2cnc3c(O)ncnc32)[C@H](O)[C@@H]1O [Inosine, reference compound] the “Diastolic Pressure in Ischemic Left Ventricle (% of Preischemic Mean Value)” value ([2]; 1 min reperfusion) was 92.35%, the “Evolving Pressure in Ischemic Left Ventricle (% of Preischemic Mean Value)” value ([2]; 1 min reperfusion) was 57.13% and the “Heart Rate during Reperfusion (% of Preischemic Mean Value)” value ([2]; 1 min reperfusion) was 45.37%. The “Maximal Rate of Increase of Left Ventricle Pressure (% of Preischemic Mean Value)” value ([2]; 1 min reperfusion) was 50.85%, the “Maximal Rate of Left Ventricle Pressure Decrease (% of Preischemic Mean Value)” value ([2]; 1 min reperfusion) was 41.91% and the “Systolic Pressure in Ischemic Left Ventricle (% of Preischemic Values)” value (“Systolic Pressure … (% of Preischemic Values)” below) ([2]; 1 min reperfusion) was 62.15%. For the same compound, the “Diastolic Pressure in Ischemic Left Ventricle (% of Preischemic Mean Value)” value ([2]; 5 min reperfusion) was 111.83%, the “Evolving Pressure in Ischemic Left Ventricle (% of Preischemic Mean Value)” value ([2]; 5 min reperfusion) was 57.59% and the “Heart Rate during Reperfusion (% of Preischemic Mean Value)” value ([2]; 5 min reperfusion) was 69.97%. For the same compound, the “Maximal Rate of Increase of Left Ventricle Pressure (% of Preischemic Mean Value)” value ([2]; 5 min reperfusion) was 54.25%, the “Maximal Rate of Left Ventricle Pressure Decrease (% of Preischemic Mean Value)” value ([2]; 5 min reperfusion) was 65.94% and the “Systolic Pressure … (% of Preischemic Values)” value ([2]; 5 min reperfusion) was 66.17%. The “Diastolic Pressure in Ischemic Left Ventricle (% of Preischemic Mean Value)” value ([2]; 10 min reperfusion) was 139.32%, the “Evolving Pressure in Ischemic Left Ventricle (% of Preischemic Mean Value)” value ([2]; 10 min reperfusion) was 82.33% and the “Heart Rate during Reperfusion (% of Preischemic Mean Value)” value ([2]; 10 min reperfusion) was 67.52%. For the same compound, the “Maximal Rate of Increase of Left Ventricle Pressure (% of Preischemic Mean Value)” value ([2]; 10 min reperfusion) was 82.35%, the “Maximal Rate of Left Ventricle Pressure Decrease (% of Preischemic Mean Value)” value ([2]; 10 min reperfusion) was 78.85% and the “Systolic Pressure … (% of Preischemic Values)” value ([2]; 10 min reperfusion) was 86.05%. For the same compound, the “Diastolic Pressure in Ischemic Left Ventricle (% of Preischemic Mean Value)” value ([2]; 20 min reperfusion) was 148.63%, the “Evolving Pressure in Ischemic Left Ventricle (% of Preischemic Mean Value)” value ([2]; 20 min reperfusion) was 94.19% and the “Heart Rate during Reperfusion (% of Preischemic Mean Value)” value ([2]; 20 min reperfusion) was 79.97%. For the same compound, the “Maximal Rate of Increase of Left Ventricle Pressure (% of Preischemic Mean Value)” value ([2]; 20 min reperfusion) was 83.58%, the “Maximal Rate of Left Ventricle Pressure Decrease (% of Preischemic Mean Value)” value ([2]; 20 min reperfusion) was 91.83% and the “Systolic Pressure … (% of Preischemic Values)” value ([2]; 20 min reperfusion) was 99.29%. For the same compound, the “Diastolic Pressure in Ischemic Left Ventricle (% of Preischemic Mean Value)” value ([2]; 30 min reperfusion) was 149.42%, the “Evolving Pressure in Ischemic Left Ventricle (% of Preischemic Mean Value)” value ([2]; 30 min reperfusion) was 91.68% and the “Heart Rate during Reperfusion (% of Preischemic Mean Value)” value ([2]; 30 min reperfusion) was 75.60%. For the same compound, the “Maximal Rate of Increase of Left Ventricle Pressure (% of Preischemic Mean Value)” value ([2]; 30 min reperfusion) was 77.85%, the “Maximal Rate of Left Ventricle Pressure Decrease (% of Preischemic Mean Value)” value ([2]; 30 min reperfusion) was 93.88% and the “Systolic Pressure … (% of Preischemic Values)” value ([2]; 30 min reperfusion) was 96.62%. For the same compound, the “-dp/dtmax, % of preischemic value” ([2]; 14 mg/l, after approximately 10 to 20 minutes) was “about 80%”, the “Number of Ventricular Extrasystoles” value [2, 4] was 230.4 and the “Overall Duration of Ventricular Fibrillation” value [2, 4] was 52.9 s. For the same compound, the “Overall Duration of Ventricular Tachycardia” value [2, 4] was 1.3 s.
For CC[N+](C)(C)CCN(C)CC[N+](C)(C)CC [Pentamine, pentamine, reference compound], the “Arterial Blood Pressure (Basal Level = 100.00)” value (shortened to “Arterial Blood Pressure”) ([3]; 1 min) was 87.09%, the “Arterial Blood Pressure” value ([3]; 2 min) was 68.18% and the “Arterial Blood Pressure” value ([3]; 3 min) was 70.82%. For the same compound, the “Arterial Blood Pressure” value ([3]; 4 min) was 69.29%, the “Arterial Blood Pressure” value ([3]; 5 min) was 74.11% and the “Arterial Blood Pressure” value ([3]; 10 min) was 91.63%. For the same compound, the “Arterial Blood Pressure” value ([3]; 15 min) was 89.94%, the “Arterial Blood Pressure” value ([3]; 30 min) was 86.95% and the “Arterial Blood Pressure” value ([3]; 45 min) was 93.89%. The “Arterial Blood Pressure” value ([3]; 60 min) was 100.31%, the “Arterial Blood Pressure” value ([3]; 75 min) was 94.38% and the “Arterial Blood Pressure” value ([3]; 90 min) was 93.22%.
